In article PMC7578299, “The antiviral effects of baloxavir marboxil against influenza A virus infection in ferrets” (Influenza and Other Respiratory Viruses, 2020):
Values joined by “and” are separate entries in the source; they are usually repeats but may differ in a detail not shown here. Identical values can stand only once. Like-named read-outs stand apart in the source and are kept apart here.

Legend:
Stability in plasma, dog = assay type: in vitro ADME; conditions: for % Residual in plasma: BXM 200 ng/mL, 37°C, mean of duplicate; for % Residual in plasma Individual value: BXM, duplicates
Method: (§1) Approximately 30 mL of blood from Japanese male healthy volunteers was collected and centrifuged to obtain plasma. Blood samples from ferrets, rats, dogs, and monkeys were collected under anesthesia and centrifuged to obtain plasma. BXM was added to reach a final concentration of 200 ng/mL to all pooled plasma samples per species. After incubation for 5, 15, and 30 minutes at 37°C, twofold volume of ice‐cold acetonitrile/methanol (1:1, v/v) was added to the plasma samples to stop further reactions, which were then centrifuged at 1800 g for 10 minutes prior to LC‐MS/MS analysis of BXM in the supernatants.

[1] = Metabolic stability in liver microsomes, ferret; assay type: in vitro ADME; conditions: for % Residual in liver microsome / % Residual in liver microsome Individual value: ferret; for % Residual in liver microsome: 0.5 mg/mL, 2 μmol/L, 37°C, mean of duplicates; for % Residual in liver microsome Individual value: duplicates
Method: (§2) Liver microsomes were prepared from ferrets, rats, dogs, and monkeys, as previously described. ^28 Human liver microsomes were obtained from Sekisui‐XenoTech, LLC and pooled (n = 15). Metabolic stability of the compounds in liver microsomes was tested in duplicate. Oseltamivir and cefcapene pivoxil were used as reference compounds. Liver microsomes at 0.5 mg/mL concentration (final volume of 0.2 mL) were incubated in Tris‐HCl buffer (pH 7.4), containing 50 mmol/L Tris‐HCl, 150 mmol/L KCl, 10 mmol/L MgCl2. The hydrolysis reaction was initiated by applying the test compound solution (final concentration 2 μmol/L). After incubation for 10, 20, and 30 minutes at 37°C, the hydrolysis was terminated by the addition of twofold volume of ice‐cold acetonitrile/methanol (1:1, v/v). Samples were centrifuged at 3000 rpm for 10 minutes prior to LC‐MS/MS analysis of compounds in the supernatants.

influenza virus = system: influenza virus; parameters: method as in PMID 30288682; conditions: patients, cited from earlier work
[2] = Pharmacokinetic analysis in ferrets after a single oral administration of BXM; assay type: in vivo, ferret; conditions: for concentration at 24 h: ferret, oral, read-out: C 24 h; for concentration at 24 h / AUC(0-t) / Cmax / Tmax: plasma; for AUC(0-t) / Cmax / Tmax: po
Method: One day prior to administration, group assignment was carried out taking body weight into account. Under isoflurane anesthesia, fasted ferrets (four per group) received BXM (10 or 30 mg/5 mL/kg) suspension orally using an intragastric tube. Blood samples were collected at 0.5, 1, 2, 4, 6, 8, and 24 hours after single oral administration of BXM and centrifuged to obtain plasma. The concentrations of BXA and BXM in plasma were determined by liquid chromatography‐tandem mass spectrometry (LC‐MS/MS). The lower limit of quantification of BXA and BXM in ferret plasma was 0.5 ng/mL. The pharmacokinetic parameters of BXA and BXM were calculated using non‐compartmental analysis module in Phoenix WinNonlin software (version 8.0; Certara LP) (https://onlinehelp.certara.com/phoenix/8.2/topics/nca.htm) based on a non‐compartment model analysis with uniform weighting.

[3] = Metabolic stability in liver microsomes, rat; assay type: in vitro ADME; conditions: for % Residual in liver microsome: 0.5 mg/mL, 2 μmol/L, 37°C, mean of duplicates; for % Residual in liver microsome Individual value: duplicates
Method: as §2

[4] = system: Influenza A virus A/Kadoma/3/2006 (H1N1); assay: Experiment 1: infected ferrets, treatment starting at Day 1 p.i. (virus titer in nasal washes, body temperature); assay type: in vivo, ferret; conditions: for reduction of virus titers by Day 2: treatment at Day 1 p.i.
[5] = Stability in plasma, human; assay type: in vitro ADME; conditions: for % Residual in plasma: BXM 200 ng/mL, 37°C, mean of duplicate; for % Residual in plasma Individual value: BXM, duplicates
Method: as §1

[6] = system: Influenza A virus A/Kadoma/3/2006 (H1N1); assay: Experiment 2: infected ferrets, treatment starting at Day 2 p.i. (virus titer in nasal washes, body temperature); conditions: treatment from Day 2 p.i.; BXM 10 mg/kg twice daily 1 day
[7] = Metabolic stability test, control (microsome free); assay type: in vitro ADME; conditions: microsome free; for % Residual, Control (Microsome free): 2 μmol/L, 37°C, mean of duplicates; for % Residual Individual value, Control (Microsome free): duplicates
Method: as §2

[8] = Stability in plasma, ferret; assay type: in vitro ADME; conditions: for % Residual in plasma: BXM 200 ng/mL, 37°C, mean of duplicate; for % Residual in plasma Individual value: BXM, duplicates
Method: as §1

Stability in plasma, rat = assay type: in vitro ADME; conditions: for % Residual in plasma: BXM 200 ng/mL, 37°C, mean of duplicate; for % Residual in plasma Individual value: BXM, duplicates
Method: as §1

[9] = Stability in plasma, monkey; assay type: in vitro ADME; conditions: for % Residual in plasma: BXM 200 ng/mL, 37°C, mean of duplicate; for % Residual in plasma Individual value: BXM, duplicates
Method: as §1

[10] = single oral BXM 10 mg/kg, individual ferrets (Ferret-01 to Ferret-04)
[11] = single oral BXM 30 mg/kg, individual ferrets (Ferret-05 to Ferret-08)

COC(=O)OCOc1c2n(ccc1=O)N([C@@H]1c3ccccc3SCc3c1ccc(F)c3F)[C@@H]1COCCN1C2=O [BXM, Baloxavir marboxil]
% Residual in plasma (Stability in plasma, dog; 10 min): 91.6% | % Residual in plasma (Stability in plasma, dog; 20 min): 79.7% | % Residual in plasma (Stability in plasma, dog; 30 min): 75.6% | % Residual in plasma Individual value (Stability in plasma, dog; 10 minutes): 97.0% and 86.3% | % Residual in plasma Individual value (Stability in plasma, dog; 20 minutes): 79.0% and 80.5% | % Residual in plasma Individual value (Stability in plasma, dog; 30 minutes): 74.9% and 76.3% | stability in liver microsomes (in words) ([1]; ferret liver microsomes): stable | % Residual in liver microsome ([1]; 10 min): 98.5% | % Residual in liver microsome ([1]; 20 min): 98.1% | % Residual in liver microsome ([1]; 30 min): 90.8% | % Residual in liver microsome Individual value ([1]; 10 minutes): 97.0% and 99.9% | % Residual in liver microsome Individual value ([1]; 20 minutes): 98.3% and 97.9% | % Residual in liver microsome Individual value ([1]; 30 minutes): 87.4% and 94.2% | time within which infectious virus titers declined (influenza virus; single weight-based oral dose 40 or 80 mg): ≤ 1 days | time to alleviation of symptoms (in words) (influenza virus; vs placebo and OSP): superior compared with placebo but not significantly different from the effect of OSP treatment | concentration at 24 h ([2]; 10 mg/kg, single oral BXM 10 mg/kg, 5% SDS water vehicle, mean of four ferrets): 28.6 ± 30.4 ng/mL | concentration at 24 h ([2]; 10 mg/kg, single oral BXM 10 mg/kg, mean of four ferrets): 50.1 ± 53.3 nM | concentration at 24 h ([2]; 30 mg/kg, single oral BXM 30 mg/kg, 5% SDS water vehicle, mean of four ferrets): 36.1 ± 12.3 ng/mL | concentration at 24 h ([2]; 30 mg/kg, single oral BXM 30 mg/kg, mean of four ferrets): 63.1 ± 21.5 nM | AUC(0-t) ([2]; 10 mg/kg, single oral BXM 10 mg/kg, 5% SDS water vehicle, mean of four ferrets, read-out: AUC0-24 h): 715 ± 758 ng·h/mL | Cmax ([2]; 10 mg/kg, single oral BXM 10 mg/kg, 5% SDS water vehicle, mean of four ferrets, read-out: C max): 165 ± 179 ng/mL | Tmax ([2]; 10 mg/kg, single oral BXM 10 mg/kg, 5% SDS water vehicle, mean of four ferrets, read-out: T max): 1.13 ± 0.63 h | AUC(0-t) ([2]; 10 mg/kg, single oral BXM 10 mg/kg, mean of four ferrets, read-out: AUC0-24 h): 1.25 ± 1.33 µM·h | Cmax ([2]; 10 mg/kg, single oral BXM 10 mg/kg, mean of four ferrets, read-out: C max): 289 ± 312 nM | AUC(0-t) ([2]; 30 mg/kg, single oral BXM 30 mg/kg, 5% SDS water vehicle, mean of four ferrets, read-out: AUC0-24 h): 1260 ± 150 ng·h/mL | Cmax ([2]; 30 mg/kg, single oral BXM 30 mg/kg, 5% SDS water vehicle, mean of four ferrets, read-out: C max): 298 ± 88 ng/mL | Tmax ([2]; 30 mg/kg, single oral BXM 30 mg/kg, 5% SDS water vehicle, mean of four ferrets, read-out: T max): 0.875 ± 0.25 h | AUC(0-t) ([2]; 30 mg/kg, single oral BXM 30 mg/kg, individual ferrets (Ferret-05 to Ferret-08), read-out: AUC0-24hr, individual data): 1450 ng·h/mL | Cmax ([2]; 30 mg/kg, single oral BXM 30 mg/kg, individual ferrets (Ferret-05 to Ferret-08), read-out: Cmax, individual data): 392 ng/mL | Tmax ([2]; 30 mg/kg, single oral BXM 30 mg/kg, individual ferrets (Ferret-05 to Ferret-08), read-out: Tmax, individual data): 1 h | AUC(0-t) ([2]; 30 mg/kg, single oral BXM 30 mg/kg, mean of four ferrets, read-out: AUC0-24 h): 2.21 ± 0.25 µM·h | Cmax ([2]; 30 mg/kg, single oral BXM 30 mg/kg, mean of four ferrets, read-out: C max): 522 ± 154 nM | C 24 h ([2]; single oral BXM 10 mg/kg, 5% SDS water vehicle, mean of four ferrets): 28.6 ng/mL | AUC0-24hr, individual data [2, 10]: 174 ng·h/mL and 539 ng·h/mL and 318 ng·h/mL and 1830 ng·h/mL | C24hr, individual data [2, 10]: 3.59 ng/mL and 35.0 ng/mL and 6.75 ng/mL and 69.0 ng/mL | Cmax, individual data [2, 10]: 101 ng/mL and 79.2 ng/mL and 48.6 ng/mL and 431 ng/mL | Tmax, individual data [2, 10]: 30 min and 120 min | C 24 h ([2]; single oral BXM 30 mg/kg, 5% SDS water vehicle, mean of four ferrets): 36.1 ng/mL | AUC0-24hr, individual data [2, 11]: 1200 ng·h/mL and 1110 ng·h/mL and 1290 ng·h/mL | C24hr, individual data [2, 11]: 22.7 ng/mL and 48.5 ng/mL and 28.7 ng/mL and 44.3 ng/mL | Cmax, individual data [2, 11]: 353 ng/mL and 214 ng/mL and 233 ng/mL | Tmax, individual data [2, 11]: 30 min | % Residual in liver microsome ([3]; 10 min): 25.3% | % Residual in liver microsome ([3]; 20 min): 4.6% | % Residual in liver microsome ([3]; 30 min): 0.6% | % Residual in liver microsome Individual value ([3]; 10 minutes): 25.3% and 25.2% | % Residual in liver microsome Individual value ([3]; 20 minutes): 4.9% and 4.4% | % Residual in liver microsome Individual value ([3]; 30 minutes): 0.7% and 0.5% | reduction of virus titers by Day 2 ([4]; BXM 10 mg/kg twice daily): ≥ 3 log10 of the 50% tissue culture infective doses | reduction of virus titers by Day 2 ([4]; BXM 30 mg/kg twice daily): ≥ 3 log10 of the 50% tissue culture infective doses | virus titer in nasal washes ([4]; Day 2 p.i., BXM 30 mg/kg twice daily for 1 day from Day 1 p.i., undetectable level): < 0.5 log10 TCID50/mL | % Residual in plasma ([5]; 10 min): 92.3% | % Residual in plasma ([5]; 20 min): 78.6% | % Residual in plasma ([5]; 30 min): 63.9% | % Residual in plasma Individual value ([5]; 10 minutes): 92.7% and 91.8% | % Residual in plasma Individual value ([5]; 20 minutes): 80.0% and 77.1% | % Residual in plasma Individual value ([5]; 30 minutes): 65.3% and 62.6% | body temperature changes over time (in words) [6]: a small but significant effect was observed with BXM compared with vehicle on Day 2 | % Residual, Control (Microsome free) ([7]; 10 min): 81.3% | % Residual, Control (Microsome free) ([7]; 20 min): 81.7% | % Residual, Control (Microsome free) ([7]; 30 min): 92.1% | % Residual Individual value, Control (Microsome free) ([7]; 10 minutes): 72.2% and 90.3% | % Residual Individual value, Control (Microsome free) ([7]; 20 minutes): 81.2% and 82.1% | % Residual Individual value, Control (Microsome free) ([7]; 30 minutes): 86.1% and 98.1% | % Residual in plasma ([8]; 10 min): 94.7% | % Residual in plasma ([8]; 20 min): 90.4% | % Residual in plasma ([8]; 30 min): 77.4% | % Residual in plasma Individual value ([8]; 10 minutes): 94.0% and 95.4% | % Residual in plasma Individual value ([8]; 20 minutes): 90.0% and 90.9% | % Residual in plasma Individual value ([8]; 30 minutes): 77.3% and 77.5% | % Residual in plasma (Stability in plasma, rat; 10 min): 0.0% | % Residual in plasma (Stability in plasma, rat; 20 min): 0.0% | % Residual in plasma (Stability in plasma, rat; 30 min): 0.0% | % Residual in plasma Individual value (Stability in plasma, rat; 10 minutes): 0.0% | % Residual in plasma Individual value (Stability in plasma, rat; 20 minutes): 0.0% | % Residual in plasma Individual value (Stability in plasma, rat; 30 minutes): 0.0% | % Residual in plasma ([9]; 10 min): 82.9% | % Residual in plasma ([9]; 20 min): 71.8% | % Residual in plasma ([9]; 30 min): 55.5% | % Residual in plasma Individual value ([9]; 10 minutes): 81.5% and 84.4% | % Residual in plasma Individual value ([9]; 20 minutes): 71.3% and 72.3% | % Residual in plasma Individual value ([9]; 30 minutes): 56.3% and 54.7%
